From ChEMBL document CHEMBL1201862, “PubChem BioAssay data set” (2004)
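Cultured in 96-well plates, cells were exposed to test compound for 48 hours across five concentrations. GI50 marks 50% less growth.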 The source made the active and inactive calls. Cut-off read from the data, not from the text of the source: active = GI50 up to about 1.1 µM and inactive = higher.

Columns and labels:
Experiment in all cases: inhibition of tumour cell growth, NCI panel, 48 h
MDA-MB-231 = test system: MDA-MB-231
LXFL 529 = test system: LXFL 529
HL-60 = test system: HL-60
SF-295 = test system: SF-295
MOLT-4 = test system: MOLT-4
SN12C = test system: SN12C
786-0 = test system: 786-0
KM12 = test system: KM12
M19-MEL = test system: M19-MEL
HT-29 = test system: HT-29
MDA-N = test system: MDA-N
HOP-92 = test system: HOP-92
BT-549 = test system: BT-549
NCI-H226 = test system: NCI-H226
NCI-H460 = test system: NCI-H460
SNB-75 = test system: SNB-75
SF-539 = test system: SF-539
SK-MEL-5 = test system: SK-MEL-5
HCC 2998 = test system: HCC 2998
CCRF-CEM = test system: CCRF-CEM

Measured: GI50

CC(=O)OC1=CC2(OC(C)=O)CC(C)(C)C1C1C(=O)C=CC(=O)C12 (centres undefined)
inactive: MDA-MB-231 54 µM | LXFL 529 > 100 µM | HL-60 > 100 µM | SF-295 > 75 µM | MOLT-4 > 63.8 µM | SN12C > 56.6 µM | 786-0 > 50.7 µM | KM12 > 100 µM | M19-MEL > 100 µM | HT-29 19.8 µM | MDA-N 31.1 µM | HOP-92 42.5 µM | BT-549 11.3 µM | NCI-H226 29.4 µM | NCI-H460 > 62.8 µM | SNB-75 > 64.6 µM | SF-539 > 47.1 µM | SK-MEL-5 > 85.3 µM | HCC 2998 > 58.3 µM | CCRF-CEM > 100 µM

Cc1nc2ccccc2c(=O)n1/N=C(\N=N\c1cc(Cl)ccc1Cl)c1ccccc1
inactive: MDA-MB-231 > 100 µM | LXFL 529 36.5 µM | HL-60 58.5 µM | SF-295 44.9 µM | MOLT-4 35 µM | SN12C > 54.2 µM | 786-0 74.1 µM | KM12 10.3 µM | M19-MEL 77.4 µM | HT-29 36.7 µM | HOP-92 30.4 µM | BT-549 38.6 µM | NCI-H226 43.1 µM | NCI-H460 45.8 µM | SNB-75 16.1 µM | SF-539 46.5 µM | SK-MEL-5 36.2 µM | HCC 2998 32.1 µM | CCRF-CEM 48.6 µM

O=NN(CCCl)C(=O)NCCCl [CARMUSTINE]
inactive: MDA-MB-231 91 µM | LXFL 529 71.4 µM | HL-60 16.7 µM | SF-295 44.5 µM | MOLT-4 33.5 µM | SN12C 75.9 µM | 786-0 42.3 µM | KM12 88.9 µM | M19-MEL 77.6 µM | HT-29 79.3 µM | MDA-N 71.3 µM | HOP-92 65.2 µM | BT-549 79.3 µM | NCI-H226 105 µM | NCI-H460 52.5 µM | SNB-75 52.2 µM | SF-539 44.8 µM | SK-MEL-5 78.7 µM | HCC 2998 93.8 µM | CCRF-CEM 18.7 µM
